Data reported in EP1025097B1, “1-(2-NAPHTHYL) AND 1-(2-AZANAPHTHYL)-4-(1-PHENYLMETHYL)PIPERAZINES BEING DOPAMINE D 4? RECEPTOR SUBTYPE LIGANDS” (NEUROGEN CORPORATION, priority 1997, dated 1999).

The compounds below were run against T1, D2 receptors (Chlorocebus aethiops, UniProt P52702) (assay: Assay for D2 receptor binding activity (3H-YM 09151-2 displacement, COS cell pellets)). Conditions: recombinant receptor in COS cells; 0.5 nM 3H-YM 09151-2.
T1 construct: expressed in transfected cells; host or cells: COS cells
T1 sequence (P52702 whole entry): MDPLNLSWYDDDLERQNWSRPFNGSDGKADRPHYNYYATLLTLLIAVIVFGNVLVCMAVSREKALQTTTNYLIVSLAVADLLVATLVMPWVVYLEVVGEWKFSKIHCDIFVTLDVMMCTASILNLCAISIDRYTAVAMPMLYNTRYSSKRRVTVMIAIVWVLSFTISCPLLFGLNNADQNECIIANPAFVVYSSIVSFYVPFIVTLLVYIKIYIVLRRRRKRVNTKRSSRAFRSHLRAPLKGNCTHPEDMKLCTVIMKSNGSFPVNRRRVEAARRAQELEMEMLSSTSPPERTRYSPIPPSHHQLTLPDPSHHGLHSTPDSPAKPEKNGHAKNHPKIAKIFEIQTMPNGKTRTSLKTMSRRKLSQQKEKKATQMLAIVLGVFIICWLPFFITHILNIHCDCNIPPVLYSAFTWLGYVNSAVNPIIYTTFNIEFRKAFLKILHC
Design: species or system African Green monkey
Procedure: Pellets of COS cells containing recombinantly produced D2 or D4 receptors from African Green monkey are used for the assays. The sample is homogenized in 100 volumes (w/vol) of 0.05 M Tris HCl buffer at 4° C and pH 7.4. The sample is then centrifuged at 30,000 x g and resuspended and rehomogenized. The sample is again centrifuged as described above and the final tissue sample is frozen until use. The tissue is resuspended 1:20 (wt/vol) in 0.05 M Tris HCl buffer containing 100 mM NaCl.
Incubations are carried out at […] and contain 0.4 ml of tissue sample, 0.5 nM ^3H-YM 09151-2 (Nemonapride, cis-5-Chloro-2-methoxy-4-(methylamino)-N-(2-methyl-2-(phenylmethyl)-3-pyrrolidinyl)benzamide)and the compound of interest in a total incubation of 1.0 ml. Nonspecific binding is defined as that binding found in the presence of […] spiperone; without further additions, nonspecific binding is less than 20% of total binding. Binding characteristics for examples of compounds encompassed within Formulae II, III and V for the D2 and D4 receptor subtypes are shown in Table 2 for […].
Clc1ccc(CN2CCN(c3ccc4ccccc4c3)CC2)cc1 [Compound 6] was tested, and the Ki was > 4 µM.
In the case of Clc1ccc(CN2CCN(c3cnc4ccccc4n3)CC2)cc1 [Compound 3], the Ki is reported as > 4 µM.
With Cc1ccc(CN2CCN(c3ccc4ccccc4n3)CC2)cc1 [Compound 2] the Ki was > 4 µM.
